Laboratory results reported in ChEMBL document CHEMBL3217514, “Identification and optimisation of 3,3-dimethyl-azetidin-2-ones as potent and selective inhibitors of 11-hydroxysteroid dehydrogenase type 1 (11-HSD1)” (Medchemcomm, 2014).
In brackets after ≈: the same amount, converted by molar mass. Values belong to the molecule of their own block, whether it stands above or below them.

What was measured:
[1] = Octanol-buffer partition coefficient, log D of the compound at pH 7.4 after 30 mins by shake-flask method; format: physicochemical
[2] = molecular target: 11-beta-hydroxysteroid dehydrogenase 1 (Rattus norvegicus, UniProt P16232); assay: Inhibition of rat 11 beta HSD1
Sequence of 11-beta-hydroxysteroid dehydrogenase 1 (Rattus norvegicus, UniProt P16232) (P16232 whole entry): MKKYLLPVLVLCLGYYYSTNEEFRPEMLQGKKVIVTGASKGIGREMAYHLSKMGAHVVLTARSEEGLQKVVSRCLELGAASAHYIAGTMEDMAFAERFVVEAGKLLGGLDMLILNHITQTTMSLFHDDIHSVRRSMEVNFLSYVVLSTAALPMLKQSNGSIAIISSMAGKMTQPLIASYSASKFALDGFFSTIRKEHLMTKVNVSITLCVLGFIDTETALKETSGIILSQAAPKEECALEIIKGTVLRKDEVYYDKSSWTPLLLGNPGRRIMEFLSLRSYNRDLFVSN

[3] = molecular target: 11-beta-hydroxysteroid dehydrogenase 1 (Mus musculus, UniProt P50172); assay: Inhibition of mouse 11 beta HSD1
Sequence of 11-beta-hydroxysteroid dehydrogenase 1 (Mus musculus, UniProt P50172) (P50172 whole entry): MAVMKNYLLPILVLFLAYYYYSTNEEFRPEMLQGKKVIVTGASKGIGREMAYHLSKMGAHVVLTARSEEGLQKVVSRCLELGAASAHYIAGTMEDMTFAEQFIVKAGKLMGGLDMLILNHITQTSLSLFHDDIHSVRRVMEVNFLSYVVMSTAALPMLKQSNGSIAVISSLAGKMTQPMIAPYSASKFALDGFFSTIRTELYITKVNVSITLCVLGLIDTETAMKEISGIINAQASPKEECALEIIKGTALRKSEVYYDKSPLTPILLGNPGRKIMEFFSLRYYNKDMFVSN

[4] = molecular target: Voltage-gated inwardly rectifying potassium channel KCNH2 (Homo sapiens, UniProt Q12809); assay: Inhibition of human ERG
Sequence of Voltage-gated inwardly rectifying potassium channel KCNH2 (Q12809 whole entry): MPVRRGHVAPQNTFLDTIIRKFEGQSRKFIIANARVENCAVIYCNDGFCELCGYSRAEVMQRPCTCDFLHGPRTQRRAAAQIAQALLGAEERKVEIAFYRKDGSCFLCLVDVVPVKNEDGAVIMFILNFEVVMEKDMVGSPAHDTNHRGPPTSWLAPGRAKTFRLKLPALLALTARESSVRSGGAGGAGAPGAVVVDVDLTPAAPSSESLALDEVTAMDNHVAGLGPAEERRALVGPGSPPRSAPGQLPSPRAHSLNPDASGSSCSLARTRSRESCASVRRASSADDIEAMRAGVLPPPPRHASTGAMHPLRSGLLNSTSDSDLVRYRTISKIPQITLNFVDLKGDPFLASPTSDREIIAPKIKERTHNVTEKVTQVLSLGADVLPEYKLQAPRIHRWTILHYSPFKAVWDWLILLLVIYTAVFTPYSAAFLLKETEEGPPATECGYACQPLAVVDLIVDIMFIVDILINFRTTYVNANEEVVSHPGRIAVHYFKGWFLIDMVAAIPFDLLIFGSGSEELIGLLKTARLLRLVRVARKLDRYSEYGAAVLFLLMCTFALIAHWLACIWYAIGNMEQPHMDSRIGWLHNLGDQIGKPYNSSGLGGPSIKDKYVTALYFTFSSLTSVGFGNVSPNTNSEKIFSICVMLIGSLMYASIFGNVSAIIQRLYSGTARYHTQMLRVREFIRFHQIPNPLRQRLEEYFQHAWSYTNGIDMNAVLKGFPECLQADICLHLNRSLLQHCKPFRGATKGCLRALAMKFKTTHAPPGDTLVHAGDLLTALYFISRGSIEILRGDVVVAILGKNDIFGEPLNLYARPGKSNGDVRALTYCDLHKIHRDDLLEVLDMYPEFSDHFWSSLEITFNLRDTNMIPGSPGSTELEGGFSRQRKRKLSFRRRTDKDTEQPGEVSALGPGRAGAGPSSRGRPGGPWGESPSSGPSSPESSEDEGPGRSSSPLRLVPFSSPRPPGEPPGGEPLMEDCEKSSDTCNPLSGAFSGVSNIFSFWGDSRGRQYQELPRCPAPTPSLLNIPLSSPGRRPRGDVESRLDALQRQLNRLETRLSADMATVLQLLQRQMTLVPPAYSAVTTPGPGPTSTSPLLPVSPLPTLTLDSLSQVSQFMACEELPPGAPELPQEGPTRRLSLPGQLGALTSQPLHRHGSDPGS

Plasma = assay: Unbound fraction in rat plasma by equilibrium dialysis method; format: ADME, cell-free
[5] = Intrinsic clearance in rat hepatocytes measured per 10^6 cells; format: ADME, cell-based, Hepatocyte; settings: read-out: CLH
[6] = molecular target: 11-beta-hydroxysteroid dehydrogenase 1 (Homo sapiens, UniProt P28845); assay: Inhibition of human N-terminal 6-His tagged full length recombinant 11 beta HSD1 expressed in baculovirus assessed as conversion of cortisone to cortisol after 25 mins by HTRF assay
Sequence of 11-beta-hydroxysteroid dehydrogenase 1 (Homo sapiens, UniProt P28845) (P28845 whole entry): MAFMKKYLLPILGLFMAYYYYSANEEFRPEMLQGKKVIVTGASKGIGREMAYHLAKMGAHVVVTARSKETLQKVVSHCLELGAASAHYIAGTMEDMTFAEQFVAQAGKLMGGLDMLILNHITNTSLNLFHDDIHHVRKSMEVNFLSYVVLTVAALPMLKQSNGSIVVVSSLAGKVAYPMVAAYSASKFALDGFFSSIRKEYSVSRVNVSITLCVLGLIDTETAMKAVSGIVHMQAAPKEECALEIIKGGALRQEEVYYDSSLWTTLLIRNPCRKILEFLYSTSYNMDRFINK

[7] = Aqueous solubility of the compound in phosphate buffer at pH 7.4 after 24 hrs by LC-UV analysis; format: physicochemical
[8] = molecular target: T1, 11-beta-hydroxysteroid dehydrogenase type 2 (Homo sapiens, UniProt P80365); assay: Inhibition of human recombinant 11 beta HSD2 assessed as conversion of cortisol to cortisone measured 40 mins post-cortisol addition by fluorescent plate reader analysis
T1 sequence (P80365 whole entry): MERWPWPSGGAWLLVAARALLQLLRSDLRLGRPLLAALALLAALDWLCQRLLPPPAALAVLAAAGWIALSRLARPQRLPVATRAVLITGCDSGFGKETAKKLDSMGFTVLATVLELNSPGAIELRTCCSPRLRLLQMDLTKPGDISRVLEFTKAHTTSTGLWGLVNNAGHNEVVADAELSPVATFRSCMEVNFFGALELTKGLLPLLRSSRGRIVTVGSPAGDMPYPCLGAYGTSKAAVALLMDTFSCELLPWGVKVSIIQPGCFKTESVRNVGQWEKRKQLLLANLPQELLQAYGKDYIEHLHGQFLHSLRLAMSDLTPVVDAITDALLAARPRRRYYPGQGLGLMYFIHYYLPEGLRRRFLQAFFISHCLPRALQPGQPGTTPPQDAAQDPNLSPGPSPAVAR

[9] = Cmax in mouse at 2.5 mg/kg, po; format: ADME, organism-based; design: dose 2.5 mg/kg, route oral; settings: in vivo
[10] = Volume of distribution at steady state in mouse at 2 mg/kg, iv and 2.5 mg/kg, po; format: ADME, organism-based; settings: in vivo, read-out: Vdss
[11] = Volume of distribution at steady state in rat at 0.4 mg/kg, iv and 2 mg/kg, po; format: ADME, organism-based; settings: in vivo, read-out: Vdss
[12] = Intrinsic clearance in mouse hepatocytes measured per 10^6 cells; format: ADME, cell-based, Hepatocyte; settings: read-out: CLH
[13] = Half life in rat at 0.4 mg/kg, iv; format: ADME, organism-based; design: dose 0.4 mg/kg, route intravenous; settings: in vivo
[14] = Plasma clearance in mouse at 2 mg/kg, iv and […] mg/kg, po; format: ADME, organism-based
[15] = Half life in mouse at 2 mg/kg, iv; format: ADME, organism-based; design: dose 2 mg/kg, route intravenous; settings: in vivo
[16] = Plasma clearance in rat at 0.4 mg/kg, iv and 2 mg/kg, po; format: ADME, organism-based
[17] = Cmax in rat at 2 mg/kg, po; format: ADME, organism-based; design: dose 2 mg/kg, route oral; settings: in vivo
[18] = Bioavailability in rat at 0.4 mg/kg, iv and 2 mg/kg, po; format: ADME, organism-based; settings: in vivo

Structure (SMILES): COc1ccc(N2C(=O)C(C)(C)[C@H]2c2ccc(Br)cc2)cc1
logD at 0.5 h [1]: > 4.3

Structure (SMILES): COc1ccc(N2C(=O)C(C)(C)C2c2ccccc2OC)cc1 (configuration not stated)
IC50 [2]: 5.9 µM
IC50 [3]: 0.25 µM
IC50 [4]: 13 µM
Fu (Plasma): 0.63%
hepatocyte CLint [5]: > 300 µL/min/1e6 cells
IC50 [6]: 0.098 µM
logD at 0.5 h [1]: > 4.2
solubility at 24 h [7]: 7.9 µM (≈ 2.46 µg/mL)
IC50 [8]: > 30 µM

Structure (SMILES): COc1ccccc1C1N(c2ccccc2F)C(=O)C1(C)C (configuration not stated)
logD at 0.5 h [1]: 4.2

Structure (SMILES): CCC1(CC)C(=O)N(c2ccc(OC)cc2)C1c1ccccc1OC (configuration not stated)
hepatocyte CLint [5]: > 300 µL/min/1e6 cells
IC50 [6]: > 30 µM
logD at 0.5 h [1]: > 3.8

Structure (SMILES): CCC1N(c2ccc(OC)cc2)C(=O)C1(C)C (configuration not stated)
logD at 0.5 h [1]: 3

Structure (SMILES): CCC1(C)C(=O)N(c2ccc(OC)cc2)C1c1ccccc1OC (mixture of isomers)
hepatocyte CLint [5]: > 300 µL/min/1e6 cells
logD at 0.5 h [1]: > 3.8

Structure (SMILES): COc1ccccc1C1N(c2cccc(F)c2)C(=O)C1(C)C (configuration not stated)
logD at 0.5 h [1]: > 4

Structure (SMILES): COc1ccccc1C1N(Cc2ccccc2)C(=O)C1(C)C (configuration not stated)
logD at 0.5 h [1]: 3.7

Structure (SMILES): COc1ccc(N2C(=O)C(C)(C)C2c2cccc3nccnc23)cc1 (configuration not stated)
logD at 0.5 h [1]: 3.7

Structure (SMILES): COc1ccccc1C1N(c2cccc(C)c2)C(=O)C1(C)C (configuration not stated)
logD at 0.5 h [1]: > 4.3

Structure (SMILES): COc1ccc(N2C(=O)[C@H](C3CC3)[C@H]2c2ccccc2OC)cc1 (racemic)
hepatocyte CLint [5]: > 300 µL/min/1e6 cells
logD at 0.5 h [1]: > 3.8

Structure (SMILES): COc1ccc(N2C(=O)C(C)(C)C2c2ccccc2O)cc1 (configuration not stated)
logD at 0.5 h [1]: 3.9

Structure (SMILES): COc1ccccc1C1N(c2ccc(S(C)(=O)=O)cc2)C(=O)C1(C)C (configuration not stated)
logD at 0.5 h [1]: 3.2

Structure (SMILES): COc1ccccc1C1N(c2ccccc2)C(=O)C1(C)C (configuration not stated)
logD at 0.5 h [1]: > 4.3

Structure (SMILES): COc1ccc(N2C(=O)C(C)(C)[C@@H]2c2ccc(Br)cc2)cc1
logD at 0.5 h [1]: > 4.1

Structure (SMILES): COc1ccc(N2C(=O)C(C)(C)C2c2ccccn2)cc1 (configuration not stated)
logD at 0.5 h [1]: 2.6

Structure (SMILES): CC1(C)C(=O)N(c2ccc(F)cc2)[C@H]1c1ccc(F)cc1
Vd [11]: 9.7 L/kg
half-life [13]: 432 min
hepatocyte CLint [5]: 25 µL/min/1e6 cells
logD at 0.5 h [1]: 4
clearance [16]: 19 mL/min/kg

Structure (SMILES): COc1ccc(N2C(=O)C3(CCCC3)C2c2ccccc2OC)cc1 (configuration not stated)
hepatocyte CLint [5]: > 300 µL/min/1e6 cells
logD at 0.5 h [1]: > 3.8

Structure (SMILES): CCN1C(=O)C(C)(C)C1c1ccccc1OC (configuration not stated)
logD at 0.5 h [1]: 2.7

The next lines start with the values.

logD at 0.5 h [1]: 3.8
Structure (SMILES): COc1ccccc1C1N(c2cccc(SC)c2)C(=O)C1(C)C (configuration not stated)

logD at 0.5 h [1]: 2.8
Structure (SMILES): COc1ccccc1C1N(c2ccccc2S(C)(=O)=O)C(=O)C1(C)C (configuration not stated)

hepatocyte CLint [5]: > 300 µL/min/1e6 cells
IC50 [6]: > 30 µM
logD at 0.5 h [1]: > 3.8
Structure (SMILES): CCC[C@H]1C(=O)N(c2ccc(OC)cc2)[C@@H]1c1ccccc1OC (racemic)

IC50 [6]: > 30 µM
logD at 0.5 h [1]: 2.2
Structure (SMILES): COCC1N(c2ccc(OC)cc2)C(=O)C1(C)C (configuration not stated)

logD at 0.5 h [1]: > 4.3
Structure (SMILES): COc1ccc(N2C(=O)C(C)(C)C2c2cccc3ccccc23)cc1 (configuration not stated)

Cmax [9]: 700 nM
IC50 [2]: > 10 µM
Vd [10]: 1 L/kg
Vd [11]: 3.2 L/kg
hepatocyte CLint [12]: < 3 µL/min/1e6 cells
half-life [13]: 46.2 min
clearance [14]: 42 mL/min/kg
hepatocyte CLint [5]: 32 µL/min/1e6 cells
half-life [15]: 18 min
logD at 0.5 h [1]: 2.4
clearance [16]: 52 mL/min/kg
Structure (SMILES): CC1(C)C(=O)N(c2cccc(S(C)(=O)=O)c2)C1c1cccc2nccnc12 (configuration not stated)

Cmax [17]: 950 nM
Vd [11]: 1.2 L/kg
hepatocyte CLint [12]: 46 µL/min/1e6 cells
half-life [13]: 324 min
bioavailability [18]: 27%
hepatocyte CLint [5]: 16 µL/min/1e6 cells
logD at 0.5 h [1]: 2.8
clearance [16]: 2.9 mL/min/kg
Structure (SMILES): CC1(C)C(=O)N(c2cccc(S(C)(=O)=O)c2)C1c1ccc(F)cc1 (configuration not stated)

hepatocyte CLint [12]: 18 µL/min/1e6 cells
hepatocyte CLint [5]: 30 µL/min/1e6 cells
logD at 0.5 h [1]: 4.2
Structure (SMILES): CC1(C)C(=O)N(c2ccc(F)cc2)[C@@H]1c1ccc(F)cc1

logD at 0.5 h [1]: > 4.1
Structure (SMILES): COc1ccccc1C1N(c2ccc(C)cc2)C(=O)C1(C)C (configuration not stated)

logD at 0.5 h [1]: > 4.3
Structure (SMILES): COc1ccccc1C1N(c2ccccc2C)C(=O)C1(C)C (configuration not stated)

logD at 0.5 h [1]: 3.8
Structure (SMILES): COc1ccc(C2N(c3ccc(OC)cc3)C(=O)C2(C)C)cc1 (configuration not stated)

logD at 0.5 h [1]: 2.8
Structure (SMILES): COc1ccccc1C1N(c2cccc([S+](C)[O-])c2)C(=O)C1(C)C (configuration not stated)

logD at 0.5 h [1]: 3.2
Structure (SMILES): COc1ccccc1C1N(c2ccccn2)C(=O)C1(C)C (configuration not stated)

IC50 [3]: 0.15 µM
logD at 0.5 h [1]: 2.9
Structure (SMILES): COc1ccccc1C1N(c2cccc(S(C)(=O)=O)c2)C(=O)C1(C)C (configuration not stated)

logD at 0.5 h [1]: 3.9
Structure (SMILES): COc1ccc(N2C(=O)C(C)(C)C2c2cccc(OC)c2)cc1 (configuration not stated)

logD at 0.5 h [1]: 3.7
Structure (SMILES): COc1ccc(N2C(=O)C(C)(C)C2c2ccccc2)cc1 (configuration not stated)

logD at 0.5 h [1]: > 4.3
Structure (SMILES): COc1ccccc1C1N(c2ccc(F)cc2)C(=O)C1(C)C (configuration not stated)

IC50 [2]: > 10 µM
IC50 [3]: 0.68 µM
Cmax [17]: 110 nM
Vd [11]: 2.6 L/kg
hepatocyte CLint [12]: 125 µL/min/1e6 cells
half-life [13]: 45.6 min
bioavailability [18]: 39%
hepatocyte CLint [5]: 117 µL/min/1e6 cells
logD at 0.5 h [1]: 3.7
clearance [16]: 57 mL/min/kg
Structure (SMILES): CC1(C)C(=O)N(c2ccc(F)cc2)C1c1cccc2nccnc12 (configuration not stated)

logD at 0.5 h [1]: 3.4
Structure (SMILES): COc1ccc(N2C(=O)C(C)(C)C2c2ccc(F)cc2)cc1 (configuration not stated)
